According to patent US12391674B2, “Heterocyclic compounds for the treatment of epilepsy” (OTSUKA PHARMACEUTICAL CO., LTD., priority 2018, dated 2025):

Key:
[1] = system: DBA/2 mice; test: Audiogenic seizure model; assay type: in vivo; conditions: Mus musculus, DBA/2 mice, oral, auditory stimulation 1 hour after administration, read-out: Seizure suppression
In short: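 Male and female DBA/2 mice (3 weeks old, 8/group) dosed orally at 30 mg/kg in 5% gum arabic; 1 h later exposed to 12.6 kHz, 100-110 dB tone for 1 min or until tonic seizure. Maximum seizure score (0–4) recorded; suppression rate graded A (≥90%), B (70–<90%), C (50–<70%).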

[2] = system: ICR mice; test: Rotarod test (motor coordination); assay type: in vivo, mouse; conditions: oral, rotarod 1 hour after administration
Procedure: This test is performed to evaluate the effect of the compound on the motor coordination. In this test example, the example compounds shown in Table 4 below were used as test compounds. Male ICR mice (Japan SLC, Inc., 5-6 weeks, 8 per group) were trained to remain on a fixed speed (15 rpm) rotating rod of rotarod apparatus (Muromachi Kikai Co., Ltd.) for 2 minutes. […] After 1 hour of oral administration, the mice were again placed on the rod accelerated from 4 rpm to 40 rpm over 5 minutes and the latency to fall off the rod was recorded for 200 seconds. The falling latency of the compound administration group was calculated as a relative value relative to the average value of the falling latency in the solvent administration group. Here, a coordination disorder of 25% or less was expressed as “A”, and a coordination disorder of more than 25% and 50% or less was expressed as “B”.

Compound	inhibition in vivo at 5 mg/kg [1] [%]	Motor dysfunction ([2]; dose 5 mg/kg)	inhibition in vivo at 30 mg/kg [1] [%]	Motor dysfunction ([2]; dose 30 mg/kg)	further results
c1ccc(Oc2ncc(-c3ccn4nncc4c3)cn2)cc1 [Example 184]	> 90	A (a coordination disorder of 25% or less)			
c1ccc(Oc2ncc(-c3cnc4ncnn4c3)cn2)cc1 [Example 188]			> 90	A (a coordination disorder of 25% or less)	
Cc1cnc2ccc(-c3cnc(Oc4ccccc4)nc3)cn12 [Example 190]	> 90	A (a coordination disorder of 25% or less)			
Cc1c(-c2cnc(Oc3ccccc3)nc2)ccc2nccn12.Cl [Example 198, 5-Methyl-6-(2-Phenoxypyrimidin-5-Yl) Imidazo[1,2-a]Pyridine Hydrochloride]	> 90	A (a coordination disorder of 25% or less)			
Cc1nc2cc(-c3cnc(Oc4ccccc4)nc3)ccn2c1C [Example 204]		A (a coordination disorder of 25% or less)	> 90		
c1ccc(Oc2ncc(-c3ccn4cnnc4c3)cn2)cc1 [Example 211]			> 90	B (a coordination disorder of more than 25% and 50% or less)	
FC(F)(F)c1cn2cc(-c3cnc(Oc4ccccc4)nc3)ccc2n1 [Example 214]			> 90	A (a coordination disorder of 25% or less)	
FC(F)(F)c1cn2ccc(-c3cnc(Oc4ccccc4)nc3)cc2n1 [Example 216]	> 90	A (a coordination disorder of 25% or less)			
O=C1NCCCN1c1cnc(Oc2ccccc2)nc1 [Example 220, 1-(2-Phenoxypyrimidin-5-Yl)Tetrahydropyrimidin-2 (1H)-One]			> 90	A (a coordination disorder of 25% or less)	
O=C1CCCCN1c1cnc(Oc2cccc(F)c2)nc1 [Example 222]			> 90	A (a coordination disorder of 25% or less)	
c1ccc(Oc2ncc(N3CCCCC3)cn2)cc1 [Example 223, 2-Phenoxy-5-(Piperidine-1-Yl)Pyrimidine]			> 90	A (a coordination disorder of 25% or less)	
c1ccc(Oc2ncc(N3CCOCC3)cn2)cc1 [Example 224]			> 90	A (a coordination disorder of 25% or less)	
OC1CCN(c2cnc(Oc3ccccc3)nc2)CC1 [Example 226, 1-(2-Phenoxypyrimidin-5-Yl) Piperidin-4-Ol]	> 90	B (a coordination disorder of more than 25% and 50% or less)			
O=C1COCCN1c1cnc(Oc2ccccc2)nc1 [Example 229, 4-(2-Phenoxypyrimidin-5-Yl) Morpholin-3-One]			> 90	A (a coordination disorder of 25% or less)	
O=C1C[C@H](O)CCN1c1cnc(Oc2ccccc2)nc1 [Example 235]			> 90	A (a coordination disorder of 25% or less)	
c1ccc(Oc2ncc(-c3ccc4c(c3)OCO4)cn2)cc1 [Example 236]			> 90	A (a coordination disorder of 25% or less)	
N#Cc1cccc(-c2cnc(Oc3ccccc3)nc2)c1 [Example 237]			> 90	A (a coordination disorder of 25% or less)	
Nc1ccc(-c2cnc(Oc3ccccc3)nc2)cc1 [Example 239, 4-(2-Phenoxypyrimidin-5-Yl) Aniline]			> 90	A (a coordination disorder of 25% or less)	
NC(=O)c1ccc(-c2cnc(Oc3ccccc3)nc2)cc1 [Example 243]	> 90	A (a coordination disorder of 25% or less)			
O=C1CCc2cc(-c3cnc(Oc4ccccc4)nc3)ccc2N1 [Example 245]			> 90	A (a coordination disorder of 25% or less)	
c1ccc(Oc2ncc(-c3cccc4cnccc34)cn2)cc1 [Example 248]	> 90	A (a coordination disorder of 25% or less)			
O=c1cnc2cc(-c3cnc(Oc4ccccc4)nc3)ccc2[nH]1 [Example 256]	70 to 90	A (a coordination disorder of 25% or less)			
c1ccc(Oc2ncc(-c3ccc4[nH]cnc4c3)cn2)cc1 [Example 258]	> 90	A (a coordination disorder of 25% or less)			

Compound	inhibition in vivo at 5 mg/kg [1] [%]	Motor dysfunction ([2]; dose 5 mg/kg)	inhibition in vivo at 30 mg/kg [1] [%]	Motor dysfunction ([2]; dose 30 mg/kg)	further results
O=C1Cc2cc(-c3cnc(Oc4ccccc4)nc3)ccc2N1 [Example 259]	> 90	A (a coordination disorder of 25% or less)			
c1ccc(Oc2ncc(-c3ccc4[nH]ccc4c3)cn2)cc1 [Example 262, 5-(2-Phenoxypyrimidin-5-Yl)-1H-Indole]	> 90	A (a coordination disorder of 25% or less)			
Cn1ncc2ccc(-c3cnc(Oc4ccccc4)nc3)nc21 [Example 275]			> 90	A (a coordination disorder of 25% or less)	
FC(F)(F)c1nnc2ccc(-c3cnc(Oc4ccccc4)nc3)cn12 [Example 279]					inhibition in vivo at 1 mg/kg [1]: > 90%; Motor dysfunction ([2]; dose 1 mg/kg): A (a coordination disorder of 25% or less)
c1ccc(Oc2ncc(-c3ccn4cncc4c3)cn2)cc1 [Example 283]	> 90	A (a coordination disorder of 25% or less)			
FC(F)(F)c1ncc2ccc(-c3cnc(Oc4ccccc4)nc3)cn12 [Example 285]	> 90	A (a coordination disorder of 25% or less)			
c1ccc(Oc2ncc(-c3ccc4nncn4n3)cn2)cc1 [Example 289]					inhibition in vivo at 1 mg/kg [1]: > 90%; Motor dysfunction ([2]; dose 1 mg/kg): A (a coordination disorder of 25% or less)
c1cncc(Oc2ncc(-c3ccc4nccn4c3)cn2)c1 [Example 294]	> 90	A (a coordination disorder of 25% or less)			
FC(F)(F)c1ncc(-c2cnc(Oc3ccccc3)nc2)cn1 [Example 296]			> 90	A (a coordination disorder of 25% or less)	
N#Cc1ccc(-c2cnc(Oc3ccccc3)nc2)cn1 [Example 297]					inhibition in vivo at 1 mg/kg [1]: > 90%; Motor dysfunction ([2]; dose 1 mg/kg): A (a coordination disorder of 25% or less)
Nc1nc2ccc(-c3cnc(Oc4ccccc4)nc3)cn2n1 [Example 298]					inhibition in vivo at 1 mg/kg [1]: > 90%; Motor dysfunction ([2]; dose 1 mg/kg): A (a coordination disorder of 25% or less)
FC(F)(F)c1cc(-c2cnc(Oc3ccccc3)nc2)ccn1 [Example 299]	> 90	A (a coordination disorder of 25% or less)			
FC(F)(F)c1ccnc(-c2cnc(Oc3ccccc3)nc2)n1 [Example 300]			> 90	A (a coordination disorder of 25% or less)	
O=C1CCN(c2ccc(Oc3cccc(F)c3)cc2)C(=O)N1 [Example 302, 1-(4-(3-Fluorophenoxy)Phenyl)Dihydropyrimidine-2,4 (1H,3H)-Dione]			> 90	A (a coordination disorder of 25% or less)	
O=C1CCN(c2ccc(Oc3ccccc3)cc2)C(=O)N1 [Example 303]			> 90	A (a coordination disorder of 25% or less)	
O=C1CCN(c2ccc(Cc3ccccc3)cc2)C(=O)N1 [Example 304]			> 90	A (a coordination disorder of 25% or less)	
O=C1CCN(c2ccc(Cc3cccc(F)c3)cc2)C(=O)N1 [Example 305, 1-(4-(3-Fluorobenzyl)Phenyl)Dihydropyrimidine-2,4 (1H,3H)-Dione]			> 90	A (a coordination disorder of 25% or less)	
O=C1CCN(c2ccc(Oc3cccc(C(F)(F)F)c3)cc2)C(=O)N1 [Example 307]			70 to 90	A (a coordination disorder of 25% or less)	
O=C1CCN(c2ccc(Oc3ccccc3F)cc2)C(=O)N1 [Example 309]			> 90	A (a coordination disorder of 25% or less)	
COc1cccc(Oc2ccc(N3CCC(=O)NC3=O)cc2)c1 [Example 311]			70 to 90	A (a coordination disorder of 25% or less)	
O=C1CCN(c2ccc(Oc3cccc(OC(F)F)c3)cc2)C(=O)N1 [Example 314, 1-{4-[3-(Difluoromethoxy) Phenoxy]Phenyl}Dihydropyrimidine-2,4 (1H,3H)-Dione]			> 90	A (a coordination disorder of 25% or less)	
O=C1CCN(c2ccc(Oc3ccccn3)cc2)C(=O)N1 [Example 316]			> 90	A (a coordination disorder of 25% or less)	
O=C1CCN(c2ccc(Oc3ccccc3)nc2)C(=O)N1 [Example 320]			> 90	B (a coordination disorder of more than 25% and 50% or less)	
